The record followed here is ChEMBL document CHEMBL5620382, “Fluoroindole chalcone analogues targeting the colchicine binding site of tubulin for colorectal oncotherapy” (Eur J Med Chem, 2023).

pIC50: −log10 of the molar value. Activity calls are given as the source filed them. No cut-off for these calls is given here.

Experiment [1] concerns HCT-116. As to the kind of experiment: Antiproliferative activity against human HCT116 cells assessed as inhibition of proliferation measured after 24 hrs by CCK-8 assay. Format: functional, cell-based. The settings on record: HCT-116, 24 h. A general note: Tetrazolium dyes change colour on reduction, which living cells bring about.
The subject of experiment [2] is HCT-116. As to the kind of experiment: Anti-tumor activity against human HCT-116 cells xenografted in BALB/c mouse assessed as inhibition of tumor growth at 7 mg/kg, ip thrice a week for three weeks. It counts as functional, organism-based. The settings on record: time 3.0 weeks.
The subject of experiment [3] is HCT-116. As to the kind of experiment: Cytotoxicity against human HCT-116 cells assessed as growth inhibition measured after 48 hrs by CCK-8 assay. Format: functional.

As usually defined, the pIC50 is the negative decadic logarithm of the IC50, by convention in mol/L. Consider `CC(=O)O[C@H]1C(=O)[C@@]2(C)[C@H]([C@H](OC(=O)c3ccccc3)[C@]3(O)C[C@H](OC(=O)[C@H](O)[C@@H](NC(=O)c4ccccc4)c4ccccc4)C(C)=C1C3(C)C)[C@]1(OC(C)=O)CO[C@@H]1C[C@@H]2O` [PACLITAXEL], for which the pIC50 in the experiment with HCT-116 [1] is 7.62. In the experiment on HCT-116 [2], the outcome was Active.
A word on the GI50: it is the concentration giving 50% growth inhibition. Turning to `COc1cc(C(=O)/C(C)=C/c2c[nH]c3c([N+](=O)[O-])cccc23)cc(OC)c1OC`, the GI50 with HCT-116 [3] turned out to be 91 nM.
Same read-out and setting: then `COc1cc(C(=O)/C(C)=C/c2c[nH]c3ccc(Cl)cc23)cc(OC)c1OC`, with 70 nM.
Same read-out and setting: under `COc1cc(C(=O)/C(C)=C/c2cnc3ccccn23)cc(OC)c1OC` stands 71 nM.
Same read-out and setting: under `COc1cccc2c1CC/C(=C\c1c[nH]c3ccccc13)C2=O` stands over 10000 nM; under `COc1cc(C(=O)/C(C)=C/c2c[nH]c3cnccc23)cc(OC)c1OC`, 821 nM.
On to `COc1cccc(C(=O)/C(C)=C/c2c[nH]c3ccccc23)c1`, for which the GI50 in the experiment on HCT-116 [3] worked out at 348 nM.
As to `COc1cc(C(=O)/C(C)=C/c2c[nH]c3ccncc23)cc(OC)c1OC`, in the experiment on HCT-116 [3], the GI50 was determined as 1080 nM.
Regarding `COc1cc(C(=O)/C(C)=C/c2c[nH]c3cc(C)ccc23)cc(OC)c1OC`, the GI50 in the experiment with HCT-116 [3] came out at 46 nM.
On the same count and under the same terms, under `CC/C(=C\c1c[nH]c2ccccc12)C(=O)c1cc(OC)c(OC)c(OC)c1` stands 43 nM; under `COc1cc(C(=O)/C(C)=C/c2c[nH]c3ccccc23)cc2c1OCO2`, 61 nM; under `COc1cc(C(=O)/C(C)=C/c2c[nH]c3c(C)cccc23)cc(OC)c1OC`, 107 nM.
Still for that read-out and setting: then `COc1ccc2c(/C=C(\C)C(=O)c3cc(OC)c(OC)c(OC)c3)c[nH]c2c1`, with 74 nM.
On the same count and under the same terms, under `COc1cc(C(=O)/C(C)=C/c2c[nH]c3cccc(C)c23)cc(OC)c1OC` stands 602 nM.
Consider `COc1cc(C(=O)/C(C)=C/c2c[nH]c3ccc(C)cc23)cc(OC)c1OC`, for which, in the experiment with HCT-116 [3], the GI50 was determined as 71 nM.
On the same count and under the same terms, under `COc1cc(C(=O)/C(C)=C/c2c[nH]c3ccc(F)cc23)cc(OC)c1OC` stands 29 nM; under `COc1cc(C(=O)/C(C)=C/c2c[nH]c3cccnc23)cc(OC)c1OC`, 59 nM.
Consider `COc1cc(C(=O)/C(C)=C/c2c[nH]c3ccc(Br)cc23)cc(OC)c1OC`, for which, in the experiment with HCT-116 [3], the GI50 was over 8000 nM.
On the same count and under the same terms, then `COc1cncc(C(=O)/C(C)=C/c2c[nH]c3ccccc23)c1`, with 240 nM; and `COc1cc(C(=O)/C(C)=C/c2c[nH]c3cc([N+](=O)[O-])ccc23)cc(OC)c1OC`, with 76 nM.
Same read-out and setting: then `COc1cc(C(=O)/C(C)=C/c2cnn3ccccc23)cc(OC)c1OC`, with 79 nM.
Same read-out and setting: under `COc1ccc(C(=O)/C(C)=C/c2c[nH]c3ccccc23)cc1OC` stands 74 nM; under `COC(=O)c1ccc2c(/C=C(\C)C(=O)c3cc(OC)c(OC)c(OC)c3)c[nH]c2c1`, 536 nM.
For the compound `COc1ccc(/C=C\c2cc(OC)c(OC)c(OC)c2)cc1O` [COMBRETASTATIN A4], the pIC50 in the experiment on HCT-116 [1] is 7.80.
On to `COc1cc(C(=O)/C(C)=C/c2c[nH]c3ncccc23)cc(OC)c1OC`, for which the GI50 in the experiment with HCT-116 [3] came out at 49 nM.
In the case of `COc1cc(C(=O)/C(C)=C/c2c[nH]c3cc(N)ccc23)cc(OC)c1OC`, in the experiment with HCT-116 [3], the GI50 is 69 nM.
Same read-out and setting: under `O=C(/C=C/c1c[nH]c2ccccc12)c1ccccc1` stands over 10000 nM; under `COc1cc(OC)cc(C(=O)/C(C)=C/c2c[nH]c3ccccc23)c1`, 65 nM.
Same read-out and setting: then `COc1cc(C(=O)/C(C)=C/c2c[nH]c3ccccc23)cc(OC)c1OC`, with 0.99 nM.
Still for that read-out and setting: under `COc1cc(C(=O)/C(C)=C/c2c[nH]c3cc(C(=O)O)ccc23)cc(OC)c1OC` stands over 10000 nM.
Consider `COc1cc(C(=O)/C(C)=C/c2c[nH]c3ccc([N+](=O)[O-])cc23)cc(OC)c1OC`, for which, in the experiment on HCT-116 [3], the GI50 worked out at 74 nM.
Still for that read-out and setting: then `C/C(=C\c1c[nH]c2ccccc12)C(=O)c1ccccc1`, with over 15000 nM; and `COc1cc(C(=O)/C(C)=C/c2csc3ccccc23)cc(OC)c1OC`, with 200 nM.
